pEC50: −log10 of the molar value.
Target: T1, human GPBAR1 receptor (Homo sapiens, UniProt Q8TDU6)
T1 construct: expressed in transfected cells
T1 sequence (Q8TDU6 1-330): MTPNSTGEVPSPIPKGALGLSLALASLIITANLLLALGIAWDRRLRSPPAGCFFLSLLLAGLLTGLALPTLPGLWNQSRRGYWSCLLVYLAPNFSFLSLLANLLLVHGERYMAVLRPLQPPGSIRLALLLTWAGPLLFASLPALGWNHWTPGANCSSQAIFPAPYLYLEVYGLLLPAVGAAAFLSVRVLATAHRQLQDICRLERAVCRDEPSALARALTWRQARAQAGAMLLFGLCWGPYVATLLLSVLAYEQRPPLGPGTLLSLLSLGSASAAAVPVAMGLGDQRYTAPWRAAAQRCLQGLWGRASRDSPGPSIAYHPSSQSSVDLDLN
Assay: functional cAMP assay in CHO-dhfr(minus) cells expressing human GPBAR1 receptors
Type: cell-based
Details: human EC50, functional cAMP assay, 30 min at 30° C.
How it was run: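 Agonist cAMP read-out: stable GPBAR1 CHO-dhfr− clone, 30 min compound exposure at 30° C following 30 min IBMX (1 mM) preincubation in Krebs Ringer bicarbonate. Time-resolved energy-transfer detection gives EC50; parental CHO cells serve as counter-screen.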

Row | pEC50 | SMILES
1 | 7.62 | Cc1ccccc1C(C/C(=N\O)c1ccncc1)c1ccc(N2CCN(S(C)(=O)=O)CC2)cc1 (stereo not drawn) [Example 136, (E)-3-[4-(4-Methanesulfonyl-piperazin-1-yl)-phenyl]-1-pyridin-4-yl-3-o-tolyl-propan-1-one oxime]
2 | 7.34 | Cc1ccccc1C(CC(=NO)c1cc(Cl)ncc1F)c1ccc(Br)cc1 (racemic) [Example 127, 3-(4-Bromo-phenyl)-1-(2-chloro-5-fluoro-pyridin-4-yl)-3-o-tolyl-propan-1-one oxime]
3 | 8.30 | Cc1cc(/C(C[C@@H](c2ccc(-c3ccc(C(=O)O)c(Cl)c3)cc2)c2ccc(Cl)cc2F)=N/O)ccn1 (single isomer, unassigned) [Example 453, (+)-3-Chloro-4′-[1-(4-chloro-2-fluoro-phenyl)-3-[(E)-hydroxyimino]-3-(2-methyl-pyridin-4-yl)-propyl]-biphenyl-4-carboxylic acid]
4 | 9.00 | Cc1cc(C(CC(c2ccc(C#CCO)cc2)c2ccccc2C)=NO)ccn1 (racemic) [Example 85, 3-[4-(3-Hydroxy-prop-1-ynyl)-phenyl]-1-(2-methyl-pyridin-4-yl)-3-o-tolyl-propan-1-one oxime]
5 | 7.62 | Cc1cc(/C(CC(c2ccc(-c3ccc(C(=O)O)c(Cl)c3)cc2)c2ccc(Cl)cc2F)=N/O)ccn1 (stereo not drawn) [Example 451, 3-Chloro-4′-[1-(4-chloro-2-fluoro-phenyl)-3-[(E)-hydroxyimino]-3-(2-methyl-pyridin-4-yl)-propyl]-biphenyl-4-carboxylic acid]
6 | 5.56 | Cc1[nH]c2ccccc2c1C(CC(=NO)c1ccncc1)c1ccc(N(C)C)cc1 (racemic) [Example 63, 3-(4-Dimethylamino-phenyl)-3-(2-methyl-1H-indol-3-yl)-1-pyridin-4-yl-propan-1-one oxime]
7 | 7.14 | Cc1cc(Cl)ccc1C(C/C(=N\O)c1ccc(=O)n(C)c1)c1ccc(S(C)(=O)=O)cc1 (single isomer, unassigned; (-)) [Example 333, (−)-(E)-5-(3-(4-Chloro-2-methylphenyl)-1-(hydroxyimino)-3-(4-(methylsulfonyl)phenyl)-propyl)-1-methylpyridin-2(1H)-one]
8 | 5.62 | CCOC(=O)C(C(=O)OCC)c1ccc([C@H](C/C(=N\O)c2ccnc(C)c2)c2ccccc2C)cc1 [Example 286, 2-{4-[(S)-3-[(E)-Hydroxyimino]-3-(2-methyl-pyridin-4-yl)-1-o-tolyl-propyl]-phenyl}-malonic acid diethyl ester]
9 | 7.31 | Cc1cc(F)ccc1C(C/C(=N\O)c1ccc(=O)n(C)c1)c1ccc(-c2ccc(NC(=O)CC(=O)O)cc2)cc1 (stereo not drawn) [Example 400, N-{4′-[1-(4-Fluoro-2-methyl-phenyl)-3-[(E)-hydroxyimino]-3-(1-methyl-6-oxo-1,6-dihydro-pyridin-3-yl)-propyl]-biphenyl-4-yl}-malonamic acid]
10 | 7.74 | Cc1cc(Cl)ccc1[C@@H](C/C(=N\O)c1ccc(=O)n(C)c1)c1ccc(-c2ccc(S(N)(=O)=O)cc2)cc1 (single isomer, unassigned) [Example 414, (+)-4′-[1-(4-Chloro-2-methyl-phenyl)-3-[(E)-hydroxyimino]-3-(1-methyl-6-oxo-1,6-dihydro-pyridin-3-yl)-propyl]-biphenyl-4-sulfonic acid amide]
11 | 6.66 | CCOCCn1cc(/C(CC(c2ccc(S(C)(=O)=O)cc2)c2ccc(Cl)cc2C)=N/O)ccc1=O (stereo not drawn) [Example 340, (E)-5-(3-(4-Chloro-2-methylphenyl)-1-(hydroxyimino)-3-(4-(methylsulfonyl)phenyl)-propyl)-1-(2-ethoxyethyl)pyridin-2(1H)-one]
12 | 6.52 | Cc1cc(Cl)ccc1[C@@H](C/C(=N\O)c1ccc(=O)n(C)c1)c1ccc(-c2ccc(C(=O)O)cc2)cc1 (single isomer, unassigned) [Example 394, (−)-4′-[1-(4-Chloro-2-methyl-phenyl)-3-[(E)-hydroxyimino]-3-(1-methyl-6-oxo-1,6-dihydro-pyridin-3-yl)-propyl]-biphenyl-4-carboxylic acid; compound with triethylamine 1:0.85]
13 | 6.69 | Cc1cc(/C(CC(c2ccccc2)c2ccccc2)=N/O)cc(F)n1 [Example 56, (E)-1-(2-Fluoro-6-methyl-pyridin-4-yl)-3,3-diphenyl-propan-1-one oxime]
14 | 5.39 | Cc1ccccc1C(C/C(=N\O)c1ccc(=O)n(C)c1)c1ccc(OCC(=O)O)cc1F (stereo not drawn) [Example 221, {3-Fluoro-4-[3-[(E)-hydroxyimino]-3-(1-methyl-6-oxo-1,6-dihydro-pyridin-3-yl)-1-o-tolyl-propyl]-phenoxy}-acetic acid]
15 | 6.93 | ON=C(CC(c1ccccc1)c1ccccc1)c1cc(Cl)ncc1F (racemic) [Example 55, 1-(2-Chloro-5-fluoro-pyridin-4-yl)-3,3-diphenyl-propan-1-one oxime]
16 | 6.66 | COC(=O)c1ccc(-c2ccc(C(CC(=NO)c3ccnc(C)c3)c3ccccc3C)cc2)cc1 (mixture of isomers) [Example 74, 4′-[3-[Hydroxyimino]-3-(2-methyl-pyridin-4-yl)-1-o-tolyl-propyl]-biphenyl-4-carboxylic acid methyl ester]
17 | 5.39 | Cc1ccccc1C(C/C(=N\O)c1ccc(=O)n(C)c1)c1ccc(C(=O)N[C@H](C)CO)cc1 (stereo partly drawn) [Example 301, 4-((E)-3-(Hydroxyimino)-3-(1-methyl-6-oxo-1,6-dihydropyridin-3-yl)-1-o-tolylpropyl)-N-((R)-1-hydroxypropan-2-yl)benzamide]
18 | 6.43 | Cn1cc(/C(CC(c2ccc(-c3ccc(C(=O)O)cc3)cc2)c2ccc(Cl)cc2F)=N/O)ccc1=O (single isomer, unassigned; (-)) [Example 242, (−)-4′-[1-(4-Chloro-2-fluoro-phenyl)-3-[(E)-hydroxyimino]-3-(1-methyl-6-oxo-1,6-dihydro-pyridin-3-yl)-propyl]-biphenyl-4-carboxylic acid]
19 | 7.59 | Cc1cc(/C(C[C@H](c2ccc(S(C)(=O)=O)cc2)c2ccc(Cl)cc2C)=N/O)ccn1 [Example 359, (R)-3-(4-Chloro-2-methyl-phenyl)-3-(4-methanesulfonyl-phenyl)-1-(2-methyl-pyridin-4-yl)-propan-1-one oxime]
20 | 6.57 | O=C(O)c1ccc(-c2ccc(C(C/C(=N\O)c3ccncc3)c3ccccc3)cc2)cc1 (stereo not drawn) [Example 77, 4′-{3-[(E)-Hydroxyimino]-1-phenyl-3-pyridin-4-yl-propyl}-biphenyl-4-carboxylic acid]
21 | 6.65 | Cc1ccccc1[C@@H](C/C(=N\O)c1cnc(=O)n(C)c1)c1ccc(Br)cc1 [Example 501, (S,E)-5-(3-(4-Bromophenyl)-1-(hydroxyimino)-3-o-tolylpropyl)-1-methylpyrimidin-2(1H)-one]
22 | 6.24 | Cc1ccccc1[C@@H](C/C(=N\O)c1ccc(=O)n(C)c1)c1ccc([C@H]2CC[C@@H](C(=O)O)CC2)cc1 [Example 489, cis-4-(4-((S,E)-3-(hydroxyimino)-3-(1-methyl-6-oxo-1,6-dihydropyridin-3-yl)-1-o-tolylpropyl)phenyl)cyclohexanecarboxylic acid]
23 | 7.70 | COC(=O)CNC(=O)c1ccc(-c2ccc(C(C/C(=N\O)c3ccc(=O)n(C)c3)c3ccc(F)cc3C)cc2)cc1 (stereo not drawn) [Example 257, ({4′-[1-(4-Fluoro-2-methyl-phenyl)-3-[(E)-hydroxyimino]-3-(1-methyl-6-oxo-1,6-dihydro-pyridin-3-yl)-propyl]-biphenyl-4-carbonyl}-amino)-acetic acid methyl ester]
24 | 6.33 | Cc1cc(/C(CC(c2ccc(Br)cc2)c2ccc(Cl)cc2F)=N/O)ccn1 (stereo not drawn) [Example 147, (E)-3-(4-Bromo-phenyl)-3-(4-chloro-2-fluoro-phenyl)-1-(2-methyl-pyridin-4-yl)-propan-1-one oxime]
25 | 6.59 | Cn1cc(/C(CC(c2ccc(-c3ccc(C(=O)O)cc3)cc2)c2ccccc2F)=N/O)ccc1=O (stereo not drawn) [Example 244, (E)-4′-(1-(2-Fluorophenyl)-3-(hydroxyimino)-3-(1-methyl-6-oxo-1,6-dihydropyridin-3-yl)propyl)biphenyl-4-carboxylic acid]
26 | 7.14 | Cc1cc(C(CC(c2ccccc2)c2ccccc2)=NO)ccn1 (racemic) [Example 57, 1-(2-Methyl-pyridin-4-yl)-3,3-diphenyl-propan-1-one oxime]
27 | 6.92 | Cc1cc(Cl)ccc1C(C/C(=N\O)c1ccc(=O)n(C)c1)c1ccc(Oc2ccc(Cl)c(C(=O)O)c2)cc1 (stereo not drawn) [Example 347, 2-Chloro-5-{4-[1-(4-chloro-2-methyl-phenyl)-3-[(E)-hydroxyimino]-3-(1-methyl-6-oxo-1,6-dihydro-pyridin-3-yl)-propyl]-phenoxy}-benzoic acid]
28 | 6.81 | CCN(CC)c1ccc(C(CC(=NO)c2ccncc2)c2ccccc2C)cc1 (racemic) [Example 42, 3-(4-Diethylamino-phenyl)-1-pyridin-4-yl-3-o-tolyl-propan-1-one oxime]
29 | 6.99 | Cc1cc(/C(CC(c2ccc(-c3ccc(C(=O)O)cc3)cc2)c2ncccc2C)=N/O)ccn1 (stereo not drawn) [Example 117, (E)-4′-[3-[Hydroxyimino]-3-(2-methyl-pyridin-4-yl)-1-(3-methyl-pyridin-2-yl)-propyl]-biphenyl-4-carboxylic acid]
30 | 7.70 | Cc1cc(/C(C[C@H](c2ccc(C3CCN(S(N)(=O)=O)CC3)cc2)c2ccc(Cl)cc2C)=N/O)ccn1 [Example 480, (R,E)-4-(4-(1-(4-Chloro-2-methylphenyl)-3-(hydroxyimino)-3-(2-methylpyridin-4-yl)propyl)phenyl)piperidine-1-sulfonamide]

From patent US8765730B2 (Hoffmann-La Roche Inc, priority 2010, dated 2014)
